Reference: patent US20020164581A1 (priority 2001, published 2002)

Key:
[1] = system: bovine aortic endothelial cells (bAECs); experiment: Lysophosphatidylcholine or homocysteine/Cu2+ challenge of E2-pretreated cells, cell survival; assay type: cell-based
Procedure: Prior to E2 pretreatment, cells were grown in phenol red-free DMEM supplemented with 10% dextran/charcoal-stripped FBS for at least 1 passage (3-4 days). Phenol red-free Dulbecco's modified medium was used to avoid potential estrogenic interference. Serum steroid deprivation was conducted according to the conditions described by Yeh et al. (Proc. Natl. Acad. Sci. USA 95:5527-5532, 1998). The E2 level in the stripped serum was assayed using an [^125I] 17β-estradiol radioimmunoassay kit (TKE21, Diagnostic Products Corporation, Los Angeles, Calif.). […] The cells grown in E2-free environments were plated onto Falcon 24-well Primariae™ plates at a density of 5×10^4 cells/well. […]
Cell survival after oxidative challenge was assessed with a 3-(4,5-dimethylthiazol-2-yl) 2,5 diphenyltetrazolium bromide (MTT) assay in which the mitochondrial dehydrogenase activity of viable cells reduces MTT to a blue formazan product (Carmichael et al. Cancer Res. 47:936-942, 1987). […] Following cell lysis, the absorbency was measured at 570 nm and used as an indicator of relative cell survival. The surviving fraction was calculated as compared to the cells without paraquat challenge.

[2] = system: antioxidant enzymes (SOD, CAT, GPX, GR) in bAECs; experiment: Antioxidant enzyme (AOE) activities in cell lysates, all four enzymes together; assay type: cell-based, bovine
Procedure: […] The cells were then lysed on ice by sonication at a setting of 50 mW, with 3×15 set cycles using a Cole-Parmer Ultrasonic Homogenizer (Chicago, Ill.). Protein concentrations in the samples were determined by the Bradford method with bovine serum albumin as a standard (Bradford, Anal. Biochem. 72:248-254, 1976).
SOD activity was determined by a method based on the ability of SOD to suppress epinephrine auto-oxidation (Misra and Fridovich, J.Biol. Chem. 247:3170-3175, 1972). One unit of SOD activity is defined as the amount of protein that inhibits the oxidation of epinephrine by 50%. Briefly, 100 μl of 10×-diluted cell homogenate (about 10 μg protein) was added to 900 μl of carbonate buffer (0.1 M NaHCO3, 0.1 M Na2CO3, 0.1 mM EDTA, pH 10.2) containing 0.7 mM of epinephrine. The absorbency of the mixture was measured for 4 minutes at 480 nm using a Hitachi U-2000 spectrophotometer (Hitachi, San Jose, Calif.).
(§1) CAT activity was determined by the method of Aebi (Methods Enzymol. 105:121,-126, 1984). One unit of CAT activity is defined as the amount of protein that degrades 1 μmole of H2O2 per minute. Initially, 10 μl of absolute ethanol was mixed with 100 μl of cell homogenates and pre-incubated at 4° C. for 30 minutes. Following the addition of 10 μl Triton X-100 (reduced form), a 100 μl aliquot (about 100 μg of protein) of the resultant mixture was next added to 500 μl of hydrogen peroxide (66 mM) and 400 μl of phosphate buffer (0.1 M NaH2PO4, 0.1 M Na2HPO4, 0.1 mM EDTA, pH 7.0). The absorbency of the mixture was monitored for one minute at 240 nm spectrophotometrically. The molar extinction coefficient of 43.6 M/cm was used to determine the catalase activity.
GPX activity was determined by a modified method of Flohe and Gunzler (Methods Enzymol. 105:114-121, 1984). One unit of GPX activity is defined as the amount of protein that oxidizes 1 nmole of β-NADPH per minute. In this assay, 100 μl of cell homogenate (about 100 μg protein) was added to 800 μl of phosphate buffer (0.1 M NaH2PO4, 0.1 M Na2HPO4, 0.1 mM EDTA, pH 7.0) containing 12.5 mM glutathione (reduced form, GSH), 0.2 mM β-nicotinamide adenine dinucleotide phosphate (reduced form, β-NADPH), and 0.34 U glutathione reductase. This mixture was pre-incubated at 37 C for 10 minutes and then 100 μl of 12 mM t-butyl hydroperoxide was added. The absorbency of the mixture was determined at 340 nm for 3 minutes. The molar extinction coefficient of 6.22 mM/cm was used to determine the activity of GPX.
GR activity was determined by a modified method of Carlberg and Mannervik (Methods Enzymol. 11 3:484-490, 1985). One unit of GR activity is defined as the amount of protein that oxidizes 1 nmole of β-NADPH per minute. Briefly, 50 μl of 2 mM β-NADPH in 10 mM Tris buffer (pH 7.0) was added to a cuvette containing 50 μl of 20 mM glutathione (oxidized ofrm, GSSG) in phosphate buffer (0.1 M NaH2PO4, 0.1 M Na2HPO4, 0.1 mM EDTA, pH 7.0) and 800 μl of phosphate buffer. Following the addition of cell homogenate (about 100 μg protein/100 μl) the final mixture was measured at 340 nm for 3 minutes. The molar extinction coefficient of 6.22 mM/cm was used to determine the activity of […].

catalase (CAT) = experiment: CAT activity in cell lysate (H2O2 degradation); assay type: cell-based, bovine
Procedure: Cells pretreated with different concentrations of E2 for 24 hours were harvested in a solution containing 50 mM Tris-HCl (pH 7.4), 1 mM EDTA, 2 μg/ml pepstatin A, 10 μg/ml benzamidine, and 10 μg/ml trypsin inhibitor. The cells were then lysed on ice by sonication at a setting of 50 mW, with 3×15 set cycles using a Cole-Parmer Ultrasonic Homogenizer (Chicago, Ill.). Protein concentrations in the samples were determined by the Bradford method with bovine serum albumin as a standard (Bradford, Anal. Biochem. 72:248-254, 1976).
as §1

With C[C@]12CC[C@@H]3c4ccc(O)cc4CC[C@H]3[C@@H]1CC[C@@H]2O [E2, 17β-estradiol] the “survival after homocysteine/Cu2+ challenge” value ([1]; homocysteine/Cu2+ 1 mM/25 μM, 3 hours) was “gained survival benefit”, the “survival after lysophosphatidylcholine challenge” value ([1]; lysophosphatidylcholine 10 μg/ml, 60 min) was “gained survival benefit” and the “AOE activities after brief incubation” value ([2]; 1 nM E2, 30 minutes) was “did not affect the activities of AOEs”. For the same compound, the “activities of the four antioxidant enzymes” value ([2]; 1 nM-10 μM E2, 24 h) was “significant increases in the activities of all four of the enzymes tested”, the “E2 concentration of optimal AOE induction” value ([2]; 24 h pretreatment) was 1 to 10 nM and the AOE activities ([2]; female bAECs, 24 hour, 1 nM E2) was “significant elevation of all of the four AOE activities tested”. For the same compound, the AOE activities ([2]; male bAECs incubated with 1 nM E2) was “not induced”, the “CAT activity elevation relative to untreated cells” value (catalase (CAT); 1 nM E2 pretreatment (Example 8)) was ~2 fold and the CAT activity increase (catalase (CAT); female bAECs, 24 h 1 nM E2 (Example 12)) was ~2 fold.
